Experimental data published in a melting point compilation (Tetko et al.; mined from patent text by program, amines drawn as free bases though some values may be those of a salt).

| Compound | melting point [°C] |
| --- | --- |
| CNC(=O)c1cccc(F)c1Nc1nc(Nc2ccc3c(c2)N(C(C)=O)CC(=O)NC3)ncc1Cl | 179 to 185 |
| CC1CC(=O)NN=C1c1ccc(NN=C(C#N)C#N)cc1 (single isomer, unassigned; (+)) | 210 to 214 |
| COc1cc(Nc2c(C#N)cnc3cc(-c4ccc(CN5CCOCC5)c(CN5CCOCC5)c4)ccc23)c(Cl)cc1Cl | 198 to 200 |
| C=CCNC(=O)Cc1c[nH]c2ccc(CCS(=O)(=O)NC)cc12 | 123 to 125 |
| C=C(C(=O)c1ccc(OC)c(Cl)c1Cl)c1ccc(Br)cc1 | 110 to 116 |
| CN(C)C1CC2=CN(S(=O)(=O)c3ccccc3)C=C3C=CC(=O)CC1=C32 (stereo not given) | 114 to 116 |
| CC(=O)NCCSc1ccnc(CSc2nc3ccccc3[nH]2)c1C | 211 to 213 |
| CC(CCC(=O)NO)NC(=O)C(=O)c1cn2c3c(cccc13)CCC2 (stereo not given) | 135 to 137 |
| CNC(=NC(=O)NC1CCCCC1)N(C)C | 121 to 124 |
| CC(=O)NCc1ccc(CCN2CCC(n3ccc4ccccc43)CC2)cc1 | 133 to 134 |
| COC=C(C(=O)OC)n1ccc2ccc(-c3csc(-c4ccc(C)cc4)n3)cc21 | 145 to 146 |
| c1cc(OCC2CO2)c2nonc2c1 (stereo not given) | 75 |
| COc1ccc(CCC(=O)O)cc1OCCCc1cn(-c2ccc(C(F)(F)F)cn2)nc1C(C)C | 93 to 94 |
| CCCN1c2ncccc2C(=O)N(C)c2ccc(-c3cn[nH]c3)nc21 | 206 to 207 |
| CCCCc1nnc(SCC2CCCCC2)n1Cc1ccc(-c2ccccc2-c2nnn[nH]2)cc1 | 89 to 91 |
| CCc1ccc(S(=O)(=O)n2c(COC(C)(C)C(=O)O)cc3nc(Cl)ccc32)cc1 | 172 |
| CCCCC(CC(=O)Nc1cc(C(N)=O)ccc1C(C)(C)C)c1cc(Cl)c(OCCCS(=O)(=O)CCC)cc1OC (stereo not given) | 144 to 150 |
| N#CCCNC(=O)c1cccc(Br)c1 | 100 to 101 |
| NC1CCN(c2c(F)cc3c(=O)c(C(=O)O)cn(C4CC4)c3c2F)C1 (stereo not given) | 290 to 292 |

| Compound | melting point [°C] |
| --- | --- |
| OCCCN1CCN(C2=Nc3ccccc3Cn3c2cc2ccccc23)CC1 | 174 to 175 |
| Cc1ccc2ccn3c(C(F)(F)F)nnc3c2c1 | 205 to 206 |
| CC(C)CNc1c(N)c2nnnn2c2ccccc12 | 148 to 150 |
| O=C(O)c1ccnc2[nH]c(CCc3ccccc3)cc12 | > 300 |
| CCN(CC)c1ccc(C2(c3ccc(N(CC)CC)cc3N(CC)CC)OC(=O)c3ccccc32)c(C)c1 (stereo not given) | 149 to 151 |
| Cc1sc2c(=O)[nH]cnc2c1Br | 320 to 322 |
| CCN(CC)C(=O)n1ccc(S(=O)(=O)c2c(C)cc(Br)cc2C)n1 | 96 to 100 |
| COc1cc(CN2CCN(C(=O)c3ccc4c(c3)C(=O)C3(CC3)O4)CC2)cc(OC)c1OC | 196 to 198 |
| CCCCCCCOCCCCCCNCc1c(CO)ccc(O)c1CO | 72 to 74 |
| CN(C)C=NS(=O)(=O)c1cc(CCNC(=O)C(F)(F)F)ccc1I | 155 to 156 |
| COc1ccc(-c2nc(C(=O)O)cc(Cl)c2Cl)cc1 | 164 to 181 |
| COc1ccc(N)cc1NC(C)=O | 83 |
| Nc1nc(Sc2ccc(F)cc2)cc(-c2ccccc2)n1 | 218 to 220 |
| CCCc1ccc(-c2cc(F)c(-c3ccc(CC)s3)c(F)c2)cc1 | 45 |
| CC(C)C(C(=O)O)c1ccc(OC(F)F)cc1 (stereo not given) | 63 |
| CN1CCC2(CC1)Nc1ccccc1S2 | 135 to 140 |
| CC(=O)OC1CSC(Oc2cncc(-c3cnoc3C)c2)C(OC(C)=O)C1OC(C)=O (stereo not given) | 127 |
| COc1ccc(C(C)C)cc1-c1cc(-c2nnnn2C2CCCN(C(=O)OC(C)(C)C)C2)c(O)cc1O (stereo not given) | 227 to 229 |
| O=C(O)COc1c(Cl)cc2c(-c3ccccc3F)noc2c1Cl | 160 to 170 |

| Compound | melting point [°C] |
| --- | --- |
| CS(=O)(=O)Nc1ccc(C#N)cc1Nc1ccc(F)cc1F | 167 to 169 |
| CC(C)(C)NCCOP1Oc2c(cc(C(C)(C)C)cc2C(C)(C)C)Cc2cc(C(C)(C)C)cc(C(C)(C)C)c2O1 | 189 to 192 |
| O=C(CBr)Nc1ccc(F)cc1C(=O)c1ccccc1Br | 110 to 114 |
| COc1ccc(-c2cc3cc(OC)cc(C(=O)O)c3o2)cc1 | 218 to 220 |
| COc1ccc(/C(=C/C=C/C(=O)Oc2ccc([N+](=O)[O-])cc2)C2CCCCC2)cc1 | 117 to 119 |
| CC(C)(C)OC(=O)c1nn(-c2ccc(Cl)cc2Cl)c(-c2ccc(Cl)cc2)c1CC#N | 168 |
| CC(=O)N1CCCCc2ccc(C(=O)CCCl)cc21 | 106 to 107 |
| CCOC=C(C(=O)CCl)C(=O)OCC | 86.5 |
| COC(=O)COc1ccc(C(=O)C(C)Br)cc1Cl (stereo not given) | 63 to 65 |
| Cn1c(=O)c2sccc2n2cnc(-c3nc(C4CC4)no3)c12 | 206 to 207 |
| Cc1ccc2cccc(OCc3c(C)ccc(N)c3C)c2n1 | 204 to 205 |
| CCCN1C(=O)N(C2CCN(Cc3cccc(CO)c3)CC2)C(c2ccccc2)c2ccccc21 (stereo not given) | 108 to 112 |
| NC(=O)C(Nc1ncccc1[N+](=O)[O-])c1c(Cl)cccc1Cl (stereo not given) | 207 |
| COC(=O)c1ccc(C#CCO)cc1 | 81 to 82 |
| CCCN1CC(c2cccc(Cl)c2)=C(c2ccc(S(C)(=O)=O)cc2)C1=O | 148 to 149 |
| CC(=O)N(C)c1ccc(-c2ccnc3c(C(=O)c4ccco4)cnn23)cc1 | 202 to 204 |
| O=c1cnc(-c2ccc([N+](=O)[O-])cc2)c[nH]1 | 336 to 338 |
| COP(=O)(CC(=O)COc1cccc(Cl)c1)OC | 78 to 79 |

Next, values leading:

| melting point [°C] | Compound |
| --- | --- |
| 158 to 159 | CCOC(=O)c1cnc2c(c(C)nc3cc(C)nn32)c1N1CCN(C)CC1 |
| 75 to 77 | CCCCCCCCCCCCc1ccc(CCC(N)(CO)CCO)cc1 (stereo not given) |
| 208 | COc1ccc(N2CCN(c3ccc(-n4cccn4)cc3)CC2)cc1 |
| 119 to 120 | CSc1ccc(Oc2ccc([N+](=O)[O-])cc2[N+](=O)[O-])cc1 |
| 96 to 97 | CC(=O)C(=NNc1ccccc1)C(=O)Nc1ccccc1 |
| 142 to 143 | CC1(C)OC[C@H](c2cnc(NC(=O)C(C)(C)C)cn2)O1 |
| 266 to 267 | O=C1NCCN1c1ccc(S(=O)(=O)Nc2ccc(I)cc2)cc1 |
| 202 to 204 | CC1(C)NC(=O)c2ccc(Oc3nnnn3-c3ccccc3)cc21 |
| 98 to 100 | OC(CNc1ccc(Cl)c(Cl)c1)Cn1ccnc1 (stereo not given) |
| 144 to 145 | O=C1CCOc2cc(S)ccc21 |
| 154 to 156 | O=c1[nH]c(=O)n(CCCCBr)c2ccc(Cl)cc12 |
| 178 to 180 | CC1(C)CC(=O)C=C(c2ccc(OCC(=O)O)c(Cl)c2Cl)C1 |
| 119 to 120 | CC(C)c1ccc(C(C[N+](=O)[O-])SC(=S)N(C)C)cc1 (stereo not given) |
| 167 to 169 | CC(C)n1c(CO)c(-c2ccc(F)cc2)c(-c2ccccc2)c1C(=O)NCCc1cccnc1 |
| 239 to 242 | CCC(CC)c1nc(-c2ccncc2)c(-c2ccc(Cl)cc2)n1CC |
| 35 to 50 | COC(=O)c1cnco1 |
| 143 to 145 | S=C=Nc1ccccc1N1CCCCC1 |
| 123 to 124 | C=CCOc1ccc(C(=O)C=Cc2cc(OC)cc(OC)c2C)cc1 |
| 175 to 178 | COCCOc1ccc(CCNC(=O)C=Cc2ccc(OC)cc2OC)cc1S(N)(=O)=O |
| 166 to 168 | CCCOC(=O)c1c(Cn2ccnc2)nc2cc(OC)c(OC)cc2c1-c1ccc(OC)c(OC)c1 |
| 152 to 155 | CC(=O)NC[C@H]1CN(c2ccc(N3CCC(F)(CN)CC3)c(F)c2)C(=O)O1 |
| 95.6 to 97.6 | CCOC(=O)c1cn2c3ccc(Br)cc3c3cc(OC)cc(c1=O)c32 |

| melting point [°C] | Compound |
| --- | --- |
| 150 to 151 | COc1ccc(Sc2ccc3c(c2)CCC2N(C)C(=O)CCC32C)cc1 (single isomer, unassigned; (+)) |
| 194 to 196 | CCCOc1ccccc1-c1ccc(C(=O)O)c(=O)[nH]1 |
| 155 to 157 | CN(C)C=Cc1ncc([N+](=O)[O-])n1CCO |
| 135 to 138 | COc1ccc(S(=O)(=O)C2(CCCC#Cc3cccc(N)c3)SC(=O)NC2=O)cc1 (stereo not given) |
| 245 | CCOC(=O)C1=C(N)NC2=C(C(=O)CCC2)C1c1ccccc1Br (stereo not given) |
| 220 to 221 | CSc1nn2c(N3C[C@@H](C)N[C@@H](C)C3)cc(C)nc2c1S(=O)(=O)c1ccccc1 |
| 142 to 143 | CC(C)(C)c1cc(NC(=O)Nc2ccc(OCCN3CCOCC3)c3ccccc23)n(-c2ccccc2)n1 |
| 94 to 96 | O=C1COc2ccccc2C(=O)C1=CNc1ccccc1 |
| 144 to 146 | CCN1C(=O)C(C)(C)C(=O)N(C)c2cc(CN(CCn3ccc4sccc4c3=O)Cc3cc(C)nn3C)ccc21 |
| 113 to 114 | COC(=O)C1=CC(=O)CC(c2ccc(Cl)cc2)N1 (stereo not given) |
| 168 to 171 | Cn1cc(-c2ccccc2)c(=O)c(-c2ccccc2C(F)(F)F)c1 |
| 184 to 187 | Cc1cccc(COc2cccnc2NC(=S)Nc2ccc(Cl)cc2)c1F |
| 91 to 93 | COC(=O)COc1cccc2c1CCC(Cc1coc(C(c3ccccc3)c3ccccc3)n1)C2 (stereo not given) |
| 195 to 196 | CCCc1c(OCc2cccc(C=CC(=O)O)c2)ccc(C(C)=O)c1O |
| 150 to 152 | Fc1ccccc1-c1c(OCc2nc3n(n2)CCCC3)nn2c(-c3ccccc3F)nncc12 |
| 223 to 225 | O=C(O)c1cc(-n2c(-c3ccccc3)cc3c2CCCC3)cc(Cl)c1O |
| 146 to 147 | CC1(C)CC(=O)N(CCCCN2CCN(c3nsc4ccccc34)CC2)C(=O)C1 |
| 121 | Clc1ccc(CNc2cncnc2)cc1 |
| 110 to 111 | COc1ccc2c(c1OC)C(=O)c1ccccc1-2 |
| 98 to 99 | CCOc1nn(-c2cc(C(F)(F)F)ccn2)cc1CCCOc1cccc(OC(C)(C)C(=O)O)c1 |
| 340 to 350 | CCCN1CCc2c(ccc3[nH]c(=O)c(=O)[nH]c23)C1 |
| 170 to 171 | COC(=O)c1cc(-c2ccc(OC)c(F)c2)nn(Cc2ccc(Cl)cc2)c1=O |
